We go through 9 molecules from ChEMBL document CHEMBL1127584, “Crystal-structure-based design and synthesis of novel C-terminal inhibitors of HIV protease” (J Med Chem, 1994).

pKi: −log10 of the molar value.

The experiment concerns the target Human immunodeficiency virus type 1 protease (Human immunodeficiency virus 1, UniProt Q72874). Kind of experiment: Inhibition of recombinant HIV-1 protease.
Turning to `C[C@H](N)C(=O)N[C@@H](C)C(=O)N[C@@H](Cc1ccccc1)[C@@H](O)CCC(=O)NC(c1ccccc1)c1cc2ccccc2[nH]1` (some centres undefined), the pKi is 6.70.
Under `NC(=O)C[C@H](NC(=O)c1ccc2ccccc2n1)C(=O)NC(Cc1ccccc1)[C@@H](O)CCC(=O)NC(c1cccc(C(F)(F)F)c1)c1cc2ccccc2[nH]1` (some centres undefined) stands 7.48; under `NC(=O)C[C@H](NC(=O)c1ccc2ccccc2n1)C(=O)NC(Cc1ccccc1)[C@@H](O)CCC(=O)NC(c1ccccc1)c1cc2ccccc2[nH]1` (some centres undefined), 7.37.
With `NC(=O)C[C@H](NC(=O)c1ccc2ccccc2n1)C(=O)NC(Cc1ccccc1)[C@@H](O)C[C@@H](Cc1ccccc1)C(=O)NC(c1ccccc1)c1cc2ccccc2[nH]1` (some centres undefined) the figure was 5.89.
In the case of `NC(=O)C[C@H](NC(=O)c1ccc2ccccc2n1)C(=O)NC(Cc1ccccc1)[C@@H](O)CCC(=O)NC(c1ccccc1)c1nc2ccccc2[nH]1` (some centres undefined), the negative-log Ki (pKi) is 6.32.
Under `NC(=O)C[C@H](NC(=O)c1ccc2ccccc2n1)C(=O)NC(Cc1ccccc1)[C@@H](O)CCC(=O)NC(c1cc2ccccc2[nH]1)C1CCCCC1` (some centres undefined) stands 6.74; under `COC(=O)[C@@H](CC(=O)[C@@H](NC(=O)CC[C@H](O)[C@H](Cc1ccccc1)NC(=O)[C@H](C)NC[C@H](C)N)C(C)C)C(C)C`, 7.74; under `Cc1cccc(C(NC(=O)CC[C@H](O)C(Cc2ccccc2)NC(=O)[C@H](CC(N)=O)NC(=O)c2ccc3ccccc3n2)c2cc3ccccc3[nH]2)c1` (some centres undefined), 7.41.
Under `CC(C)CC(=O)N[C@H](C(=O)N[C@H](C(=O)N[C@@H](CC(C)C)[C@@H](O)CC(=O)N[C@@H](C)C(=O)N[C@@H](CC(C)C)[C@@H](O)CC(=O)O)C(C)C)C(C)C` [PEPSTATIN] stands 5.51.
